{"source": "the NIST ThermoML archive (doi:10.1021/acs.jced.6b00334)", "key": {"[1]": {"assay": "Solid-liquid equilibrium temperature", "settings": "101 kPa; Crystal; DTA"}, "[2]": {"assay": "Molar enthalpy of transition or fusion", "settings": "Crystal; DSC"}}, "note": "± gives the expanded uncertainty stated by the source.", "data": [{"smiles": "CCc1ccc2c(c1)C(=O)c1ccccc1C2=O", "note": "[2-ethyl-9,10-anthracenedione]", "values": [{"measurement": "Solid-liquid equilibrium temperature", "setting": "[1]", "result": "384.15 ± 0.25", "unit": "K"}, {"measurement": "Molar enthalpy of transition or fusion", "setting": "[2]", "result": "4.49 ± 1.2", "unit": "kcal/mol"}]}]}
